Target: T1, EGFR^WT kinase (Homo sapiens, UniProt P00533)
T1 construct: commercial wild-type EGFR kinase (Sigma Aldrich)
Test: HTRF KinEASE-TK kinase assay
Type: biochemical

T1 sequence (P00533 25-1210): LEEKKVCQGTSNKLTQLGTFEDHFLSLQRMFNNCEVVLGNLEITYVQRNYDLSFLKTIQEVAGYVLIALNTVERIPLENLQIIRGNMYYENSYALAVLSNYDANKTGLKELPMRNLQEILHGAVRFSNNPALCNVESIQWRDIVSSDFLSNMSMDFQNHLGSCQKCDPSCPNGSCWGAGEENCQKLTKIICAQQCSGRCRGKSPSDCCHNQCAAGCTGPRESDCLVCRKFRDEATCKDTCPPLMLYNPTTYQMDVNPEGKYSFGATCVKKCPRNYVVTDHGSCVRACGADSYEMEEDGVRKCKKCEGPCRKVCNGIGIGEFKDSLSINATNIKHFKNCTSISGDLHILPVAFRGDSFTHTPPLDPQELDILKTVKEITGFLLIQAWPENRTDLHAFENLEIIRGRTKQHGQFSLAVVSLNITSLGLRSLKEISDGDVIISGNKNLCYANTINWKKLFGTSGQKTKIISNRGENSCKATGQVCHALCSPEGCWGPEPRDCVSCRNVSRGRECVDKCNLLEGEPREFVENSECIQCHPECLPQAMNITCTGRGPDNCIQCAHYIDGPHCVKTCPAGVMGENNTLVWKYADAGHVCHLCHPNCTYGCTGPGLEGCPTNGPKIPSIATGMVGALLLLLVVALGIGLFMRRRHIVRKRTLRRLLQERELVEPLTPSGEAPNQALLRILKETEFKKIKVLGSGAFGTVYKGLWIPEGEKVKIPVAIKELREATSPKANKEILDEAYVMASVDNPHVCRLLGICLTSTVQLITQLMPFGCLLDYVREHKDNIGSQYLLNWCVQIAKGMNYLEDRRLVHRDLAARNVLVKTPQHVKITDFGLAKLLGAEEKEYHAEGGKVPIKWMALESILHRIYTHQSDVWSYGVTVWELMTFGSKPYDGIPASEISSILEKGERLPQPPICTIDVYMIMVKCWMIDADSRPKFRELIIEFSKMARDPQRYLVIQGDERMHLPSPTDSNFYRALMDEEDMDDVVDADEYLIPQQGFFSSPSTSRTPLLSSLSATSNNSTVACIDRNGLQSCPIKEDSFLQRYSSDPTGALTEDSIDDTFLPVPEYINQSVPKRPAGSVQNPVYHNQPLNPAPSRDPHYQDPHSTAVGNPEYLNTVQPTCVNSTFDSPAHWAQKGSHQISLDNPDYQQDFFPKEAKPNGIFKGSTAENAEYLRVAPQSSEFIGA

Q: Which IC50 does the source give for `C=C(C)[C@H]1C=C2[C@H](C)CC[C@H](Cc3c(O)c(C=O)c4c(c3O)C(=O)CC(C)(C)O4)[C@@]2(C)CC1` [R14, Eucarbwenstols D] here?
A: Its IC50 is 191 nM.

— article doi:10.1101/2025.02.22.639610v1, “Excavating Podocyte-Protective Targets of phloroglucinol-terpene hybrids Utilizing AI Models and Omics Analysis” (biorxiv, 2025)
